BigSolDB 2.1

Cl.N/N=C(\N)NN
Details | solubility (mole fraction)
in THF, 273.15 K | 1.96e-05
in THF, 278.15 K | 2.74e-05
in THF, 283.15 K | 3.7e-05
in THF, 288.15 K | 5.17e-05
in THF, 293.15 K | 6.85e-05
in THF, 298.15 K | 9.12e-05
in THF, 303.15 K | 0.000119
in THF, 308.15 K | 0.000154
in THF, 313.15 K | 0.000209
in THF, 318.15 K | 0.000265
in THF, 323.15 K | 0.000333
in acetonitrile, 273.15 K | 7.35e-06
in acetonitrile, 278.15 K | 1.19e-05
in acetonitrile, 283.15 K | 1.4e-05
in acetonitrile, 288.15 K | 2.09e-05
in acetonitrile, 293.15 K | 2.72e-05
in acetonitrile, 298.15 K | 3.41e-05
in acetonitrile, 303.15 K | 5.02e-05
in acetonitrile, 308.15 K | 6.91e-05
in acetonitrile, 313.15 K | 8.3e-05
in acetonitrile, 318.15 K | 9.96e-05
in acetonitrile, 323.15 K | 0.000142
in ethanol, 273.15 K | 0.000112
in ethanol, 278.15 K | 0.000156
in ethanol, 283.15 K | 0.000207
in ethanol, 288.15 K | 0.0003
in ethanol, 293.15 K | 0.000373
in ethanol, 298.15 K | 0.00054
in ethanol, 303.15 K | 0.000666
in ethanol, 308.15 K | 0.000904
in ethanol, 313.15 K | 0.00119
in ethanol, 318.15 K | 0.00158
in ethanol, 323.15 K | 0.002
in ethyl acetate, 273.15 K | 1.56e-05
in ethyl acetate, 278.15 K | 2.2e-05
in ethyl acetate, 283.15 K | 3.03e-05
in ethyl acetate, 288.15 K | 4.16e-05
in ethyl acetate, 293.15 K | 5.57e-05
in ethyl acetate, 298.15 K | 7.51e-05
in ethyl acetate, 303.15 K | 0.000101
in ethyl acetate, 308.15 K | 0.00013
in ethyl acetate, 313.15 K | 0.000169
in ethyl acetate, 318.15 K | 0.000217
in ethyl acetate, 323.15 K | 0.000281
in isobutanol, 273.15 K | 2.22e-05
in isobutanol, 278.15 K | 3.04e-05
in isobutanol, 283.15 K | 4.2e-05
in isobutanol, 288.15 K | 5.88e-05
in isobutanol, 293.15 K | 7.77e-05
in isobutanol, 298.15 K | 0.000105
in isobutanol, 303.15 K | 0.000134
in isobutanol, 308.15 K | 0.000177
in isobutanol, 313.15 K | 0.000233
in isobutanol, 318.15 K | 0.000301
in isobutanol, 323.15 K | 0.000389
in isopropanol, 273.15 K | 2.41e-05
in isopropanol, 278.15 K | 3.39e-05
in isopropanol, 283.15 K | 4.68e-05
in isopropanol, 288.15 K | 6.35e-05
in isopropanol, 293.15 K | 8.43e-05
in isopropanol, 298.15 K | 0.000112
in isopropanol, 303.15 K | 0.000148
in isopropanol, 308.15 K | 0.000192
in isopropanol, 313.15 K | 0.000248
in isopropanol, 318.15 K | 0.000326
in isopropanol, 323.15 K | 0.000417
in methanol, 273.15 K | 0.00218
in methanol, 278.15 K | 0.00272
in methanol, 283.15 K | 0.00338
in methanol, 288.15 K | 0.00436
in methanol, 293.15 K | 0.00522
in methanol, 298.15 K | 0.00664
in methanol, 303.15 K | 0.00802
in methanol, 308.15 K | 0.00971
in methanol, 313.15 K | 0.0118
in methanol, 318.15 K | 0.0144
in methanol, 323.15 K | 0.0175
in n-butanol, 273.15 K | 3.27e-05
in n-butanol, 278.15 K | 4.64e-05
in n-butanol, 283.15 K | 6.17e-05
in n-butanol, 288.15 K | 8.36e-05
in n-butanol, 293.15 K | 0.000111
in n-butanol, 298.15 K | 0.000147
in n-butanol, 303.15 K | 0.000197
in n-butanol, 308.15 K | 0.000259
in n-butanol, 313.15 K | 0.000345
in n-butanol, 318.15 K | 0.000432
in n-butanol, 323.15 K | 0.000549
in n-heptane, 273.15 K | 1.74e-05
in n-heptane, 278.15 K | 2.52e-05
in n-heptane, 283.15 K | 3.41e-05
in n-heptane, 288.15 K | 4.7e-05
in n-heptane, 293.15 K | 6.36e-05
in n-heptane, 298.15 K | 8.63e-05
in n-heptane, 303.15 K | 0.000119
in n-heptane, 308.15 K | 0.000153
in n-heptane, 313.15 K | 0.000204
in n-heptane, 318.15 K | 0.000264
in n-heptane, 323.15 K | 0.000334
in n-hexane, 273.15 K | 1.77e-05
in n-hexane, 278.15 K | 2.5e-05
in n-hexane, 283.15 K | 3.47e-05
in n-hexane, 288.15 K | 4.69e-05
in n-hexane, 293.15 K | 6.58e-05
in n-hexane, 298.15 K | 8.84e-05
in n-hexane, 303.15 K | 0.000115
in n-hexane, 308.15 K | 0.000154
in n-hexane, 313.15 K | 0.000205
in n-hexane, 318.15 K | 0.000261
in n-hexane, 323.15 K | 0.00035
in n-propanol, 273.15 K | 4.25e-05
in n-propanol, 278.15 K | 5.9e-05
in n-propanol, 283.15 K | 7.94e-05
in n-propanol, 288.15 K | 0.00011
in n-propanol, 293.15 K | 0.000145
in n-propanol, 298.15 K | 0.000189
in n-propanol, 303.15 K | 0.000253
in n-propanol, 308.15 K | 0.000319
in n-propanol, 313.15 K | 0.000412
in n-propanol, 318.15 K | 0.000539
in n-propanol, 323.15 K | 0.000675
in water, 273.15 K | 0.0395
in water, 278.15 K | 0.0481
in water, 283.15 K | 0.0546
in water, 288.15 K | 0.0664
in water, 293.15 K | 0.0778
in water, 298.15 K | 0.0879
in water, 303.15 K | 0.101
in water, 308.15 K | 0.112
in water, 313.15 K | 0.127
in water, 318.15 K | 0.145
in water, 323.15 K | 0.161
